The target in assay [1] is T1, recombinant human ghrelin receptor (HEK293/GRLN) (Homo sapiens, UniProt Q92847).
T1 construct: expressed in transfected cells
Briefly: Ghrelin inverse agonist potency (EC50) with IP-1 (IP-One HTRF) assay. It is filed as cell-based. The following applies: inverse agonist potency, IP-1 assay; read-out: EC50 (Activity). As to the method: Evaluation of Ghrelin Inverse Agonist Potency (EC50) with IP-1 Assay:
HEK293 cells stably expressing recombinant human ghrelin receptor (HEK293/GRLN) were used in the IP-One HTRF assay. One day before the test, cells were seeded at a density of 1.5×10^4/well in a Matrigel® coated 384-well plate with 30 μL of complete Dulbecco's Modified Eagle's Medium and incubated at 37° C. in 5% CO2 for 18-22 hours. On the test day, the medium was removed by centrifugation at 600 rpm for 30 seconds, and 20 μL of stimulation buffer containing 1x tested compound was added with Bravo (Agilent technologies). The plate was then incubated at 37° C. 5% CO2 for 1 hour. After the incubation, 5 μL of IP1-d2 and 5 μL of Tb-Cryp were added to all wells using multidrop Combi(Thermo). After additional incubation at room temperature for 1 hour, the plates were read on Envision with 620 and 665 (Perkin Elmer).
For orientation: In TR-FRET formats the signal depends on donor and acceptor labels being close together.

Assay [2] concerns the target T2, GHSR-1a (HEK293/GHSR1a cell line) (Homo sapiens, UniProt Q92847).
T2 construct: expressed in transfected cells; host or cells: HEK293/GHSR1a cell line
Briefly: Ghrelin antagonist potency (IC50) with calcium FLIPR assay, ghrelin 10 nM. The assay is classed as cell-based. As to the method:
Evaluation of Ghrelin Agonist (EC50) and Antagonist Potency (IC50) with Calcium FLIPR Assay:
The intracellular calcium assay was carried out in a 384-well format FLIPR™ (Molecular Device) HEK293/GHSR1a cell line. Cells were seeded 24 hr prior to the experiments at an optimal density per well. Preincubation with selected calcium dye lasted for 30-60 min at room temperature or 37° C. Test compounds, dissolved in DMSO, were added at the appropriate time and incubated for 15 min followed by the addition of ghrelin with FlexStation or FLIPR. Relative fluorescence was monitored by the FLIPR™ Molecular Device. EC50 and IC50 values were estimated from dose-response data using GraphPad Prism software. To check for GHSR-1a agonism, the compound was added at t=20 sec. and the calcium response was followed for 2 minutes. To check for GHSR-1a antagonism, the compound and Ghrelin (10 nM) were added to the cells at t=20 sec. and the calcium response was measured for 2 minutes. The potency of the antagonist was calculated by its ability to reduce the ghrelin response. Dose-response curves were made for relevant antagonists.

[3] abbreviates: ghrelin antagonist potency, read-out: IC50 (Activity).
The mark [4] stands for this setting: HEK293/GHSR1a, ghrelin 10 nM, read-out: Activity IC50 (ghrelin antagonist potency).

In general, EC50 refers to the concentration that produces a half-maximal response. Broadly, the IC50 is the concentration that inhibits the measured activity by half.

Each structure is given as a SMILES string. Where two headings read alike, the source gives them in different places. Where only a bound is given, the exact number is not on record here.

T2 sequence (Q92847 whole entry): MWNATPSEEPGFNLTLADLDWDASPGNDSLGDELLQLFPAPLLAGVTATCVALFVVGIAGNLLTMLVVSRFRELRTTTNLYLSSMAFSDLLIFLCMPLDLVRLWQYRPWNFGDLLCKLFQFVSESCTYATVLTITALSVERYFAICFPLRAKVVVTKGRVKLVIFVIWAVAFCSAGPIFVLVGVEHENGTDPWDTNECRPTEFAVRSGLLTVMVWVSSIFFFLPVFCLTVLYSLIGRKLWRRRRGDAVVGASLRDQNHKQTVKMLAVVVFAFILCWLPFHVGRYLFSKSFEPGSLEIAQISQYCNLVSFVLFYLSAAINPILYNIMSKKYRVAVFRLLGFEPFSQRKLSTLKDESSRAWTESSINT
T1 sequence (Q92847 whole entry): as above

Consider `CC(C)NC(=O)Nc1ccc(S(=O)(=O)Cc2ccc3c(c2)CNC3)cc1` [H1178, 1-(4-((isoindolin-5-ylmethyl)sulfonyl)phenyl)-3-isopropylurea], for which, in assay [1], the EC50 was determined as 1020 nM. The IC50 in assay [2] (setting [3]) was determined as 4890 nM.

In the case of `O=C(Nc1ccccc1)Nc1ccc(S(=O)(=O)Cc2ccc3c(c2)CNC3)cc1` [H1190, 1-(4-((isoindolin-5-ylmethyl)sulfonyl)phenyl)-3-phenylurea], the EC50 in assay [1] stood at 317 nM. The IC50 in assay [2] (setting [3]) came out at 264 nM.

Take `C[C@H](NC(=O)Nc1ccc(S(=O)(=O)Cc2ccc3c(c2)CCOC3)cc1)c1cccc(Cl)c1Cl` [H1092, (S)-1-(1-(2,3-dichlorophenyl)ethyl)-3-(4-((isochroman-6-ylmethyl)sulfonyl)phenyl)urea]: in assay [1], the EC50 stood at 578 nM.

For the compound `COc1ccc(CS(=O)(=O)c2ccc(NC(=O)N[C@@H](C)c3cccc(Cl)c3Cl)cc2)cc1` [H1083, (S)-1-(1-(2,3-dichlorophenyl)ethyl)-3-(4-((4-methoxybenzyl)sulfonyl)phenyl)urea], the EC50 in assay [1] is 1180 nM.

For `CCNC(=O)Nc1ccc(S(=O)(=O)Nc2ccc(CC(C)(C)N)cc2)cc1` [H0994, N-(4-(2-amino-2-methylpropyl)phenyl)-4-(3-ethylureido)benzenesulfonamide], in assay [1], the EC50 came to 1430 nM.

`COC(=O)c1ccc(NS(=O)(=O)c2ccc(NC(=O)N[C@@H](C)c3cccc(Cl)c3Cl)cc2)cc1` [H1061, methyl (S)-4-((4-(3-(1-(2,3-dichlorophenyl)ethyl)ureido)phenyl)sulfonamido)benzoate]: in assay [2] (setting [3]), the IC50 was determined as 2870 nM.

As to `C[C@H](NC(=O)Nc1ccc(S(=O)(=O)CC2CC2)cc1)c1cccc(Cl)c1Cl` [H1078, (S)-1-(4-((cyclopropylmethyl)sulfonyl)phenyl)-3-(1-(2,3-dichlorophenyl)ethyl)urea], the half-inhibitory concentration (IC50) in assay [2] (setting [3]) was 3580 nM.

Take `CC(NC(=O)N(O)c1ccc(S(=O)(=O)Nc2ccc3c(c2)CNC3)cc1)c1ccccc1` (stereo not drawn) [H1199, 4-(1-hydroxy-3-(1-phenylethyl)ureido)-N-(isoindolin-5-yl)benzenesulfonamide]: the IC50 in assay [2] (setting [3]) amounted to 75.7 nM.

Consider `CC(=O)N(C)S(=O)(=O)c1ccc(NC(=O)N[C@@H](C)c2ccc(-c3cnccn3)c(Cl)c2Cl)cc1` [H0954, (S)-N-((4-(3-(1-(2,3-dichloro-4-(pyrazin-2-yl)phenyl)ethyl)ureido)phenyl)sulfonyl)-N-methylacetamide], for which the half-maximal inhibitory concentration (IC50) in assay [2] (setting [3]) is over 30000 nM.

With `Cc1ccc(CS(=O)(=O)c2ccc(NC(=O)N[C@@H](C)c3ccc(-c4cnccn4)c(Cl)c3Cl)cc2)cc1` [H0963, (S)-1-(1-(2,3-dichloro-4-(pyrazin-2-yl)phenyl)ethyl)-3-(4-((4-methylbenzyl)sulfonyl)phenyl)urea], the IC50 in assay [2] (setting [3]) is over 30000 nM.

Take `CCOc1ccc(Cl)c(C(=O)NC(=O)Nc2ccc(S(=O)(=O)Nc3ccc4c(c3)CNC4)cc2)c1` [H1252, 2-chloro-5-ethoxy-N-((4-(N-(isoindolin-5-yl)sulfamoyl)phenyl)carbamoyl) benzamide]: in assay [2] (setting [3]), the concentration for half-maximal inhibition (IC50) is 440 nM.

Take `C[C@H](NC(=O)Nc1ccc(S(=O)(=O)NCCC2CCNCC2)cc1)c1cccc(Cl)c1Cl` [H1052, (S)-4-(3-(1-(2,3-dichlorophenyl)ethyl)ureido)-N-(2-(piperidin-4-yl)ethyl)benzenesulfonamide]: the IC50 in assay [2] (setting [3]) is 467 nM.

In the case of `CC(c1ccccc1)N1Cc2cc(S(=O)(=O)Cc3ccc4c(c3)CNC4)ccc2NC1=O` (stereo not drawn) [H1395, 6-((isoindolin-5-ylmethyl)sulfonyl)-3-(1-phenylethyl)-3,4-dihydroquinazolin-2(1H)-one], in assay [2] (setting [4]), the IC50 was determined as 68.9 nM.

`COc1cccc(CS(=O)(=O)c2ccc(NC(=O)N[C@@H](C)c3cccc(Cl)c3Cl)cc2)c1` [H1082, (S)-1-(1-(2,3-dichlorophenyl)ethyl)-3-(4-((3-methoxybenzyl)sulfonyl)phenyl)urea]: the IC50 in assay [2] (setting [3]) is over 30000 nM.

For the compound `CN1Cc2ccc(CS(=O)(=O)c3ccc(NC(=O)NCC4CC4)cc3)cc2C1` [H1230, 1-(cyclopropylmethyl)-3-(4-(((2-methylisoindolin-5-yl)methyl)sulfonyl)phenyl)urea], the IC50 in assay [2] (setting [3]) stood at 6400 nM.

For the compound `COc1ccc([C@H](C)NC(=O)Nc2ccc(S(=O)(=O)Nc3ccc4c(c3)CCN(S(C)(=O)=O)C4)cc2)c(Cl)c1Cl` [H1033, (S)-4-(3-(1-(2,3-dichloro-4-methoxyphenyl)ethyl)ureido)-N-(2-(methylsulfonyl)-1,2,3,4-tetrahydroisoquinolin-6-yl)benzenesulfonamide], in assay [2] (setting [3]), the IC50 was determined as 3020 nM.

On to `C[C@H](NC(=O)Nc1ccc(S(=O)(=O)Cc2ccc(-c3cccnc3)cc2)cc1)c1cccc(Cl)c1Cl` [H1070, (S)-1-(1-(2,3-dichlorophenyl)ethyl)-3-(4-((4-(pyridin-3-yl)benzyl)sulfonyl)phenyl)urea], for which the half-maximal inhibitory concentration (IC50) in assay [2] (setting [3]) was determined as 5290 nM.

With `CN(C)C(C)(C)Cc1ccc(CS(=O)(=O)c2ccc(NC(=O)NCc3cccc(Cl)c3Cl)cc2)cc1` [H0981, 1-(2,3-dichlorobenzyl)-3-(4-((4-(2-(dimethylamino)-2-methylpropyl)benzyl)sulfonyl)phenyl)urea], the IC50 in assay [2] (setting [3]) was found to be 9.5 nM.

In the case of `C[C@H](NC(=O)Nc1ccc2c(c1)C=C(c1ccc3c(c1)CNC3)S2(=O)=O)c1ccccc1` [H1270, (S)-1-(2-(isoindolin-5-yl)-1,1-dioxidobenzo[b]thiophen-5-yl)-3-(1-phenylethyl)urea], the concentration for half-maximal inhibition (IC50) in assay [2] (setting [4]) came to 25.1 nM.

On to `COc1ccc(C(C)NC(=O)Nc2ccc(S(=O)(=O)Nc3ccc(CO)cc3)cc2)c2ccccc12` (stereo not drawn) [H1145, N-(4-(hydroxymethyl)phenyl)-4-(3-(1-(4-methoxynaphthalen-1-yl)ethyl)ureido) benzenesulfonamide], for which the IC50 in assay [2] (setting [3]) was at least 30000 nM.

Regarding `O=C(NCc1cncs1)Nc1ccc(S(=O)(=O)Cc2ccc3c(c2)CNC3)cc1` [H1208, 1-(4-((isoindolin-5-ylmethyl)sulfonyl)phenyl)-3-(thiazol-5-ylmethyl)urea], the IC50 in assay [2] (setting [3]) was over 30000 nM.

Take `Cc1ccc(NS(=O)(=O)c2ccc(NC(=O)N[C@@H](C)c3cccc(Cl)c3Cl)cc2)cc1` [H0966, (S)-4-(3-(1-(2,3-dichlorophenyl)ethyl)ureido)-N-(p-tolyl)benzenesulfonamide]: the IC50 in assay [2] (setting [3]) was found to be 6580 nM.

In the case of `C[C@H](NC(=O)Nc1ccc(S(=O)(=O)Nc2ccc(CCO)cc2)cc1)c1ccccc1Cl` [H1095, (S)-4-(3-(1-(2-chlorophenyl)ethyl)ureido)-N-(4-(2-hydroxyethyl)phenyl) benzenesulfonamide], the IC50 in assay [2] (setting [3]) is 1430 nM.

For the compound `O=C(NC(=O)c1cc(N2CCOCC2)ccc1Cl)Nc1ccc(S(=O)(=O)Nc2ccc3c(c2)CNC3)cc1` [H1250, 2-chloro-N-((4-((isoindolin-5-yl)sulfamoyl)phenyl)carbamoyl)-5-morpholinobenzamide], in assay [2] (setting [3]), the IC50 worked out at 1370 nM.

Regarding `C[C@H](NC(=O)Nc1ccc(S(=O)(=O)Cc2ccc3c(c2)NCC3)cc1)c1cccc(Cl)c1Cl` [H1045, (S)-1-(1-(2,3-dichlorophenyl)ethyl)-3-(4-((indolin-6-ylmethyl)sulfonyl)phenyl)urea], the IC50 in assay [2] (setting [3]) turned out to be 2740 nM.

With `O=C(NCc1cccc(Cl)c1Cl)Nc1ccc(S(=O)(=O)Cc2ccc3c(c2)CCN3)cc1` [H1048, 1-(2,3-dichlorobenzyl)-3-(4-((indolin-5-ylmethyl)sulfonyl)phenyl)urea], in assay [2] (setting [3]), the IC50 is 16800 nM.

`COC(=O)c1cccc(CS(=O)(=O)c2ccc(NC(=O)N[C@@H](C)c3cccc(Cl)c3Cl)cc2)c1` [H1087, methyl (S)-3-(((4-(3-(1-(2,3-dichlorophenyl)ethyl)ureido)phenyl)sulfonyl)methyl)benzoate]: the IC50 in assay [2] (setting [3]) turned out to be 8180 nM.

Regarding `C[C@H](NC(=O)Nc1ccc(S(=O)(=O)Cc2ccc(C(=O)O)cc2)cc1)c1cccc(Cl)c1Cl` [H1059], in assay [2] (setting [3]), the IC50 is over 30000 nM.

For the compound `C[C@H](NC(=O)N(C)c1ccc(S(=O)(=O)Nc2ccc(CC(C)(C)N)cc2)cc1)c1ccc(-c2cnccn2)c(Cl)c1Cl` [H0942, (S)-N-(4-(2-amino-2-methylpropyl)phenyl)-4-(3-(1-(2,3-dichloro-4-(pyrazin-2-yl)phenyl)ethyl)-1-methylureido) benzenesulfonamide], the concentration for half-maximal inhibition (IC50) in assay [2] (setting [3]) is 2040 nM.

As to `C[C@H](NC(=O)Nc1ccc(S(=O)(=O)C2CCN(C)CC2)cc1)c1ccccc1` [H1237, (S)-1-(4-((1-methylpiperidin-4-yl)sulfonyl)phenyl)-3-(1-phenylethyl)urea], the IC50 in assay [2] (setting [3]) is over 30000 nM.

On to `C[C@H](NC(=O)N(O)c1ccc(S(=O)(=O)Nc2ccc3c(c2)CNC3)cc1)c1cccc(Cl)c1Cl` [H1188, (S)-4-(3-(1-(2,3-dichlorophenyl)ethyl)-1-hydroxyureido)-N-(isoindolin-5-yl)benzenesulfonamide], for which the IC50 in assay [2] (setting [3]) is 539 nM.

Values taken from patent US10501479B2, “Benzenesulfonyl-asymmetric ureas and medical uses thereof” (HELSINN HEALTHCARE SA, priority 2016, dated 2019).
